Measured values from patent US20230255988A1 (CORNELL UNIVERSITY, priority 2020, published 2023).
“Also recorded” adds a separate entry of the source.

Experiments:
[1] = tested on: brain glucose utilization; assay: FDG PET imaging of glucose metabolism, regions of interest; assay type: in vivo, human
Text: Image acquisition, processing, and measurement. FDG PET imaging of glucose metabolism was acquired at baseline and after 12 months of treatment. All scans were acquired on a Siemens MCT 64 PET/CT PET-CT scanner at CUIMC. Study participants were maintained in an awake, at rest state with eyes and ears open in dim lighting during tracer uptake. Forty minutes after injection of the tracer, the emission image was acquired in four contiguous 5-minute frames. Frames were aligned with SPM 12, averaged, and then spatially normalized to the MNI template using SPM12 (https://www.fil.ion.ucl.ac.uk/spm/software/spm12/), resulting in one image per participant for each time point. Average voxel values within 90 regions of interest (ROIs) in the Automated Anatomic Labeling (AAL) Atlas were computed. […] The paracentral lobule and cerebellum were included as reference regions given their relative preservation during AD progression.

[2] = tested on: advanced glycation end products (AGE); assay: Advanced glycation end products (AGE) level, ABCAM kit; assay type: in vivo, human; details: 12 months
Procedure: Biomarker outcomes. AGE are formed during the Maillard reaction where reducing carbohydrates react with lysine side chains and N-terminal amino groups of various macromolecules, particularly proteins. AGE can adversely affect the function of these macromolecules. One of the most prevalent advanced glycation end products, N-epsilon-(carboxymethyl) lysine, has been implicated in oxidative stress and vascular damage. The quantity of AGE adduct in protein samples is determined by comparison with that of a known AGE-BSA standard curve. AGE levels were measured on plasma sample with a kit from ABCAM (AB238539), Cambridge, Mass., USA

[3] = tested on: amyloid positive patients with amnestic mild cognitive impairment (aMCI) or mild dementia due to AD; assay: Clinical dementia rating (CDR) score, 12-month trial; assay type: in vivo, human
Text: ADAS-cog served as the primary endpoint. […] The trial duration per participant was twelve months. […] Clinical dementia rating (CDR) score. CDR is a five-point scale used to characterize six domains of cognitive and functional performance applicable to Alzheimer's disease and related dementias: Memory, Orientation, Judgment & Problem Solving, Community Affairs, Home & Hobbies, and Personal Care. A higher score indicates greater dementia (C. P. Hughes et al., British Journal of Psychiatry, 140, 566-572, 1982). The primary clinical outcome was ADAS-Cog, and secondary outcomes included the CDR score and fluorodeoxyglucose ([…]) imaging of the brain. AGE levels were an exploratory outcome. The primary analysis followed Intention-to-Treat (ITT) and the secondary analysis was per-protocol. The per-protocol analysis omitted one placebo participant who took benfotiamine from a commercial vendor. The ITT and per-protocol analysis are presented for the primary outcome ADAS-cog and the secondary measure CDR. For the other measures, only per-protocol analysis are presented.

[4] = tested on: amyloid positive patients with amnestic mild cognitive impairment (aMCI) or mild dementia due to AD; assay: Alzheimer's Disease Cooperative Study-Activities of Daily Living (ADCS-ADL), 12-month trial; assay type: in vivo, human; details: 12 months
Text: (§1) The trial duration per participant was twelve months.
Alzheimer's Disease Cooperative Study-Activities of Daily Living (ADCS-ADL). The ADCS-ADLSIV is a caregiver-based ADL scale composed of 19 items developed for use in dementia clinical studies (D. Galasko et al., Alzheimer Disease and Associated Disorders, 11, S33-S39, 1997). It assesses the patient's performance of both basic and instrumental activities of daily living, such as those necessary for personal care, communicating and interacting with other people, maintaining a household, conducting hobbies and interests, as well as making judgments and decisions. Higher numbered scores and answers of “yes” reflect a more self-sufficient individual. Therefore, the higher total score correlates with higher cognitive function. The total score is the sum of all items and sub-questions.

[5] = tested on: amyloid positive patients with amnestic mild cognitive impairment (aMCI) or mild dementia due to AD; assay: Neuropsychiatric Inventory (NPI), 12-month trial; assay type: in vivo, human
Procedure: The trial duration per participant was twelve months. […] Neuropsychiatric Inventory (NPI). The NPI assesses a wide range of behaviors encountered in dementia patients to provide a means of distinguishing frequency and severity of behavioral changes. Ten behavioral and two neuro-vegetative domains are evaluated through an interview with the caregiver.

[6] = tested on: amyloid positive patients with amnestic mild cognitive impairment (aMCI) or mild dementia due to AD; assay: Safety profile / adverse events in 12-month trial; assay type: in vivo, human
Text: as §1
Pre-screening of 634 patients at the METS at the Burke Rehabilitation Hospital excluded all but 120 participants (FIG. 1). Only eighty-three of these patients were amyloid positive. Twelve declined to participate. Seventy-one of these participants agreed to be part of the trial, and were randomized to receive either placebo or benfotiamine. Eight subjects were prematurely discontinued from the trial prior to Month 12. Three participants were withdrawn due to non-compliance <80%; three withdrew consent due to unwillingness to complete study procedures; one participant was lost to follow-up and one was withdrawn by PI due to physical limitations. None of the participants randomized to the treatment group withdrew due to adverse reactions or adverse effects. […] After the trial completion and after the data were locked, one patient in the placebo group was determined to be on benfotiamine from another source and was excluded from the per-protocol analysis.

[7] = in vivo
Procedure: Measures of thiamine and its esters thiamine diphosphate (ThDP) and thiamine monophosphate (ThMP) provided blood markers of efficacy of drug delivery.
Study procedures. […] At the baseline visit, the cognitive tests were performed and blood drawn for measurement of thiamine, ThDP and ThMP by HPLC and APOE genotyping. Enrolled patients returned to the Burke outpatient clinic at month 3, 6, 9 and 12 for subsequent visits. At month 12, the final FDG/PET scan was performed at CUIMC.
The trial duration per participant was twelve months. […] At each visit, the patients returned the pill bottles for that period. The number of pills returned was used to assess compliance (the percent of pills consumed).

For `C/C(=C(\CCOP(=O)(O)O)SC(=O)c1ccccc1)N(C=O)Cc1cnc(C)nc1N` [benfotiamine], the “FDGPET Month_12 - Baseline change, Entorhinal_cortex Left” value ([1]; n = 34, 2×300 mg per day) was −0.02 (0.11), the “FDGPET Month_12 - Baseline change, Entorhinal_cortex Right” value ([1]; n = 34, 2×300 mg per day) was −0.02 (0.10) and the “FDGPET Month_12 - Baseline change, Frontal cortex Left” value ([1]; n = 34, 2×300 mg per day) was −0.03 (0.04). For the same compound, the “FDGPET Month_12 - Baseline change, Frontal cortex Right” value ([1]; n = 34, 2×300 mg per day) was −0.03 (0.04), the “FDGPET Month_12 - Baseline change, Hippocampus Left” value ([1]; n = 34, 2×300 mg per day) was −0.01 (0.04) and the “FDGPET Month_12 - Baseline change, Hippocampus Right” value ([1]; n = 34, 2×300 mg per day) was −0.02 (0.04). The “FDGPET Month_12 - Baseline change, Medial temporal Left” value ([1]; n = 34, 2×300 mg per day) was −0.03 (0.04), the “FDGPET Month_12 - Baseline change, Medial temporal Right” value ([1]; n = 34, 2×300 mg per day) was −0.03 (0.05) and the “FDGPET Month_12 - Baseline change, Parietal Left” value ([1]; n = 34, 2×300 mg per day) was −0.02 (0.05). For the same compound, the “FDGPET Month_12 - Baseline change, Parietal Right” value ([1]; n = 34, 2×300 mg per day) was −0.02 (0.04), the “FDGPET Month_12 - Baseline change, Percuneus Left” value ([1]; n = 34, 2×300 mg per day) was −0.03 (0.04) and the “FDGPET Month_12 - Baseline change, Percuneus Right” value ([1]; n = 34, 2×300 mg per day) was −0.03 (0.04). For the same compound, the “FDGPET Month_12 - Baseline change, Posterior cingulate Left” value ([1]; n = 34, 2×300 mg per day) was −0.02 (0.03), the “FDGPET Month_12 - Baseline change, Posterior cingulate Right” value ([1]; n = 34, 2×300 mg per day) was −0.02 (0.03) and the “FDGPET Month_12 - Baseline change, Prefrontal_cortex Left” value ([1]; n = 34, 2×300 mg per day) was −0.02 (0.04). The “FDGPET Month_12 - Baseline change, Prefrontal_cortex Right” value ([1]; n = 34, 2×300 mg per day) was −0.03 (0.04), the “FDGPET Month_12 - Baseline change, Whole_brain” value ([1]; n = 34, 2×300 mg per day) was −0.01 (0.02) and the “FDGPET in pre-specified regions of interest, benfotiamine versus placebo” value ([1]; paracentral lobule and cerebellum as reference region) was “No significant differences”. For the same compound, the “AGE effect by APOE ε4 status” value [2] was “more apparent in non-APOE ε4 patients”, the “effect on AGE over the course of the disease” value ([2]; 13 benfotiamine patients, p=0.043) was “inhibited the increase in AGE” and the “Mean change in global CDR from baseline to 12 months” value ([3]; 2×300 mg per day, placebo 0.22, p=0.034) was 0.05. For the same compound, the “reduction of deterioration (global CDR change versus placebo)” value ([3]; baseline to 12 months) was 77%, the “CDR response by APOE ε4 status” value ([3]; non-APOE ε4 group p=0.013) was “non-APOE ε4 group seemed to respond much more; also recorded: only the non-APOE ε4 allele group differs” and the “mean change in CDR-SB from baseline to 12 months, versus placebo” value ([3]; p=0.078) was “difference at trend level”. For the same compound, the “ADCS-ADL score versus placebo” value [4] was “no significant differences”, the “change in NPI, whole population” value ([5]; 12 months versus placebo) was “No differences” and the “NPI score in males” value ([5]; males, month 9 (0.014) and month 12 (p=0.035)) was “significantly reduced scores; also recorded: highly significant benefit in males”. The “adverse events related to benfotiamine” value ([6]; 2×300 mg benfotiamine per day, twelve months) was “No adverse events”, the “safety of administration in patients with aMCI and dementia due to AD” value ([6]; overall conclusion) was “safe” and the “withdrawal due to adverse reactions or adverse effects” value ([6]; participants randomized to the treatment group) was “None”. For the same compound, the “Allergy, number of patients (%)” value ([6]; treatment n = 34, 12 months) was 0 (0%), the “Anxiety, number of patients (%)” value ([6]; treatment n = 34, 12 months) was 5 (14%) and the “Bruise, number of patients (%)” value ([6]; treatment n = 34, 12 months) was 2 (6%). The “Cold symptoms, number of patients (%)” value ([6]; treatment n = 34, 12 months) was 3 (8%), the “Depression, number of patients (%)” value ([6]; treatment n = 34, 12 months) was 1 (3%) and the “Dizziness, number of patients (%)” value ([6]; treatment n = 34, 12 months) was 3 (8%). The “Fall, number of patients (%)” value ([6]; treatment n = 34, 12 months) was 6 (17%), the “Gastrointestinal problem, number of patients (%)” value ([6]; treatment n = 34, 12 months) was 9 (26%) and the “Head injury, number of patients (%)” value ([6]; treatment n = 34, 12 months) was 0 (0%). For the same compound, the “Heart arrhythmia, number of patients (%)” value ([6]; treatment n = 34, 12 months) was 1 (3%), the “Pain, number of patients (%)” value ([6]; treatment n = 34, 12 months) was 5 (14%) and the “Pneumonia, number of patients (%)” value ([6]; treatment n = 34, 12 months) was 0 (0%). For the same compound, the “Sprain, number of patients (%)” value ([6]; treatment n = 34, 12 months) was 0 (0%), the “Stroke, number of patients (%)” value ([6]; treatment n = 34, 12 months) was 2 (6%) and the “Surgery, number of patients (%)” value ([6]; treatment n = 34, 12 months) was 1 (3%). For the same compound, the Total adverse events ([6]; treatment n = 34, 12 months, placebo 59) was 38, the “increase in blood thiamine above baseline” value ([7]; human, 12 months) was 161 fold and the “difference in thiamine levels by APOE-epsilon4 carrier status following treatment” value [7] was “three-fold”.
